From ChEMBL document CHEMBL5620362 (Eur J Med Chem, 2023)

Tests used:
[1] = molecular target: T1, Nuclear receptor ROR-gamma (Homo sapiens, UniProt P51449); assay: Binding affinity to CM5 chip-immobilized recombinant ROR-gamma LBD (unknown origin) assessed as dissociation constant by SPR analysis
T1 sequence (P51449 whole entry): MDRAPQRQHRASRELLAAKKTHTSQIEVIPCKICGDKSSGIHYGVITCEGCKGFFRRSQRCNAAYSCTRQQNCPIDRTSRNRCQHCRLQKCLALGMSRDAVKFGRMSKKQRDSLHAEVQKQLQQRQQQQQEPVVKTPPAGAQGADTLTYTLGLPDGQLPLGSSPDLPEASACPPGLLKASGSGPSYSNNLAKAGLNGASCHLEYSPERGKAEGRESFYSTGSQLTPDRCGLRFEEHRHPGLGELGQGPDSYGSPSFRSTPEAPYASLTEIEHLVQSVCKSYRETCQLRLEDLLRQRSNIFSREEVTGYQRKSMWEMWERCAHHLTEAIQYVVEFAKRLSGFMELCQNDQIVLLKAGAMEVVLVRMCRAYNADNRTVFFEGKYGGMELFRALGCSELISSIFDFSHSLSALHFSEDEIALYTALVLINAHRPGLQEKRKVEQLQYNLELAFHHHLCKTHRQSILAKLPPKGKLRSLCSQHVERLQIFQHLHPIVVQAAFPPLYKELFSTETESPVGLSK

[2] = test system: HPAF-II; assay: Antitumor activity against human HPAF-II cells measured after 72 hrs; assay type: functional, cell-based
[3] = test system: HPAF-II; assay: Induction of apoptosis in human HPAF-II cells assessed as viable cells at 1 uM incubated for 48 hrs by Annexin V-FITC/PI staining based flow cytometry (reference value: 89.73 %); assay type: functional; settings: read-out: Activity
[4] = test system: HPAF-II; assay: Induction of apoptosis in human HPAF-II cells assessed as early apoptotic cells at 1 uM incubated for 48 hrs by Annexin V-FITC/PI staining based flow cytometry (reference value: 0.90 %); assay type: functional
[5] = test system: HPAF-II; assay: Induction of apoptosis in human HPAF-II cells assessed as late apoptotic cells at 1 uM incubated for 48 hrs by Annexin V-FITC/PI staining based flow cytometry (reference value: 1.28 %); assay type: functional
[6] = test system: HPAF-II; assay: Induction of apoptosis in human HPAF-II cells assessed as necrotic cells at 1 uM incubated for 48 hrs by Annexin V-FITC/PI staining based flow cytometry (reference value: 8.09 %); assay type: functional
[7] = test system: NCI-H23; assay: Induction of apoptosis in human NCI-H23 cells assessed as viable cells at 10 uM incubated for 48 hrs by Annexin V-FITC/PI staining based flow cytometry (reference value: 92.16 %); assay type: functional; settings: read-out: Activity
[8] = test system: NCI-H23; assay: Induction of apoptosis in human NCI-H23 cells assessed as early apoptotic cells at 10 uM incubated for 48 hrs by Annexin V-FITC/PI staining based flow cytometry (reference value: 4.17 %); assay type: functional
[9] = test system: NCI-H23; assay: Induction of apoptosis in human NCI-H23 cells assessed as late apoptotic cells at 10 uM incubated for 48 hrs by Annexin V-FITC/PI staining based flow cytometry (reference value: 2.89 %); assay type: functional
[10] = test system: NCI-H23; assay: Induction of apoptosis in human NCI-H23 cells assessed as necrotic cells at 10 uM incubated for 48 hrs by Annexin V-FITC/PI staining based flow cytometry (reference value: 0.78 %); assay type: functional

Row | SMILES | Kd [1] [nM] | IC50 [2] [nM] | also measured
1 | C=C(C)[C@@H]1CC[C@]2(C(=O)N[C@@H]3CN4CCC3CC4)CC[C@]3(C)[C@H](CC[C@@H]4[C@@]5(C)CC[C@H](O)C(C)(C)[C@@H]5CC[C@]43C)[C@@H]12 | 120 | 130 | –
2 | C=C(C)[C@@H]1CC[C@]2(C(=O)NC[C@@H]3CCN(C)C3)CC[C@]3(C)[C@H](CC[C@@H]4[C@@]5(C)CC[C@H](O)C(C)(C)[C@@H]5CC[C@]43C)[C@@H]12 | – | 320 | –
3 | C=C(C)[C@@H]1CC[C@]2(C(=O)NC[C@@H]3CCCN3C)CC[C@]3(C)[C@H](CC[C@@H]4[C@@]5(C)CC[C@H](O)C(C)(C)[C@@H]5CC[C@]43C)[C@@H]12 | 660 | 320 | –
4 | O=S(=O)(c1ccccc1)N(CC(F)(F)F)c1ccc(C(O)(C(F)(F)F)C(F)(F)F)cc1 [T091317] | – | – | viability at 1 µM [3]: 79.8%; Activity [4]: 8.56%; Activity [5]: 7.38%; Activity [6]: 6.3%; viability at 10 µM [7]: 90.2%; Activity [8]: 2.68%; Activity [9]: 3.82%; Activity [10]: 3.3%
5 | C=C(C)[C@@H]1CC[C@]2(C(=O)Nc3nccs3)CC[C@]3(C)[C@H](CC[C@@H]4[C@@]5(C)CC[C@H](O)C(C)(C)[C@@H]5CC[C@]43C)[C@@H]12 | 5460 | 1960 | –
6 | C=C(C)[C@@H]1CC[C@]2(C(=O)N[C@H]3CCN(C)C3)CC[C@]3(C)[C@H](CC[C@@H]4[C@@]5(C)CC[C@H](O)C(C)(C)[C@@H]5CC[C@]43C)[C@@H]12 | 1870 | 210 | –
7 | C=C(C)[C@@H]1CC[C@]2(C(=O)NCCNc3ccncc3)CC[C@]3(C)[C@H](CC[C@@H]4[C@@]5(C)CC[C@H](O)C(C)(C)[C@@H]5CC[C@]43C)[C@@H]12 | 590 | 310 | –
8 | C=C(C)[C@@H]1CC[C@]2(C(=O)NC3CCCN(C)CC3)CC[C@]3(C)[C@H](CC[C@@H]4[C@@]5(C)CC[C@H](O)C(C)(C)[C@@H]5CC[C@]43C)[C@@H]12 (stereo partly drawn) | 250 | 110 | –
9 | C=C(C)[C@@H]1CC[C@]2(C(=O)NC[C@H]3CCCN3C)CC[C@]3(C)[C@H](CC[C@@H]4[C@@]5(C)CC[C@H](O)C(C)(C)[C@@H]5CC[C@]43C)[C@@H]12 | 420 | 350 | –
10 | C=C(C)[C@@H]1CC[C@]2(C(=O)N[C@@H]3CCCN(C)C3)CC[C@]3(C)[C@H](CC[C@@H]4[C@@]5(C)CC[C@H](O)C(C)(C)[C@@H]5CC[C@]43C)[C@@H]12 | 340 | 300 | –
11 | C=C(C)[C@@H]1CC[C@]2(C(=O)N[C@@H]3CCN(C)C3)CC[C@]3(C)[C@H](CC[C@@H]4[C@@]5(C)CC[C@H](O)C(C)(C)[C@@H]5CC[C@]43C)[C@@H]12 | 670 | 380 | –
12 | C=C(C)[C@@H]1CC[C@]2(C(=O)NC3CCNCC3)CC[C@]3(C)[C@H](CC[C@@H]4[C@@]5(C)CC[C@H](O)C(C)(C)[C@@H]5CC[C@]43C)[C@@H]12 | 1960 | 1210 | –
13 | C=C(C)[C@@H]1CC[C@]2(C(=O)N[C@H]3CCCN(C)C3)CC[C@]3(C)[C@H](CC[C@@H]4[C@@]5(C)CC[C@H](O)C(C)(C)[C@@H]5CC[C@]43C)[C@@H]12 | 960 | 350 | –
14 | C=C(C)[C@@H]1CC[C@]2(C(=O)NC[C@H]3CCN(C)C3)CC[C@]3(C)[C@H](CC[C@@H]4[C@@]5(C)CC[C@H](O)C(C)(C)[C@@H]5CC[C@]43C)[C@@H]12 | – | 360 | –

Continued, in another order:

Row | Kd [1] [nM] | IC50 [2] [nM] | SMILES | also measured
15 | 870 | 230 | C=C(C)[C@@H]1CC[C@]2(C(=O)NCCN3CCCC3)CC[C@]3(C)[C@H](CC[C@@H]4[C@@]5(C)CC[C@H](O)C(C)(C)[C@@H]5CC[C@]43C)[C@@H]12 | –
16 | 1110 | 220 | C=C(C)[C@@H]1CC[C@]2(C(=O)NCCN(CC)CCO)CC[C@]3(C)[C@H](CC[C@@H]4[C@@]5(C)CC[C@H](O)C(C)(C)[C@@H]5CC[C@]43C)[C@@H]12 | –
17 | 1880 | 380 | C=C(C)[C@@H]1CC[C@]2(C(=O)NCCN(C)CCN(C)C)CC[C@]3(C)[C@H](CC[C@@H]4[C@@]5(C)CC[C@H](O)C(C)(C)[C@@H]5CC[C@]43C)[C@@H]12 | –
18 | 2900 | 440 | C=C(C)[C@@H]1CC[C@]2(C(=O)NCC(C)(C)CN(C)C)CC[C@]3(C)[C@H](CC[C@@H]4[C@@]5(C)CC[C@H](O)C(C)(C)[C@@H]5CC[C@]43C)[C@@H]12 | –
19 | 3060 | 2780 | C=C(C)[C@@H]1CC[C@]2(C(=O)NCCCN(C)C)CC[C@]3(C)[C@H](CC[C@@H]4[C@@]5(C)C[C@H](O)C(C)(C)[C@@H]5CC[C@]43C)[C@@H]12 | –
20 | 780 | 7030 | C=C(C)[C@@H]1CC[C@]2(C(=O)NCc3cc[nH]n3)CC[C@]3(C)[C@H](CC[C@@H]4[C@@]5(C)CC[C@H](O)C(C)(C)[C@@H]5CC[C@]43C)[C@@H]12 | –
21 | 290 | 310 | C=C(C)[C@@H]1CC[C@]2(C(=O)NCCN3CCC(O)C3)CC[C@]3(C)[C@H](CC[C@@H]4[C@@]5(C)CC[C@H](O)C(C)(C)[C@@H]5CC[C@]43C)[C@@H]12 (stereo partly drawn) | –
22 | 520 | 320 | C=C(C)[C@@H]1CC[C@]2(C(=O)NCCOCCN(C)C)CC[C@]3(C)[C@H](CC[C@@H]4[C@@]5(C)CC[C@H](O)C(C)(C)[C@@H]5CC[C@]43C)[C@@H]12 | –
23 | 780 | 9300 | C=C(C)[C@@H]1CC[C@]2(C(=O)NCc3cncs3)CC[C@]3(C)[C@H](CC[C@@H]4[C@@]5(C)CC[C@H](O)C(C)(C)[C@@H]5CC[C@]43C)[C@@H]12 | –
24 | 720 | 120 | C=C(C)[C@@H]1CC[C@]2(C(=O)NCCN(CC)CC)CC[C@]3(C)[C@H](CC[C@@H]4[C@@]5(C)CC[C@H](O)C(C)(C)[C@@H]5CC[C@]43C)[C@@H]12 | –
25 | 4550 | 370 | C=C(C)[C@@H]1CC[C@]2(C(=O)NCCCN(C)C)CC[C@]3(C)[C@H](CC[C@@H]4[C@@]5(C)CC[C@H](N)C(C)(C)[C@@H]5CC[C@]43C)[C@@H]12 | –
26 | 6390 | 760 | C=C1C[C@]2(C)[C@H]3CC[C@@H]4[C@H]5[C@H](C(=C)C)CC[C@]5(C(=O)NCCCN(C)C)CC[C@@]4(C)[C@]3(C)CC[C@H]2C(C)(C)C1=O | –
27 | 240 | 120 | CN(C)CCCNC(=O)[C@]12CC[C@@H](C3(C)CC3)[C@@H]1[C@H]1CC[C@@H]3[C@@]4(C)CC[C@H](O)C(C)(C)[C@@H]4CC[C@@]3(C)[C@]1(C)CC2 | –
